Patent publication US4545982A, “Pyranone compounds and skin-lightening cosmetic preparations or local demelanizing agents containing the same” (Yakurigaku Chuo Kenkyusho, priority 1982, dated 1985)

Key:
[1] = tested on: triturated solution of pancreas of a rat; experiment: Enzymatic hydrolysis of acyl compounds by rat pancreas homogenate (ferric chloride coloring); type: in vitro ADME; parameters: key: +: light wine color; ++: deep wine color; +++: dark wine color; --: no coloration; ±: indistinct coloration; conditions: 0.05M substrate emulsion, 37° C., 1 hr
Description: (§1) (1) Substrate solution: A solution containing 2% polyvinyl alcohol in M/15 phosphate buffer solution (pH 7.0) was prepared. The respective acyl compounds were added to the solution in a concentration of 0.05M and homogenized in a homogenizer to give emulsions.
(§2) (2) Enzymatic solution: 30 mg of purified bacterial lipase was dissolved in 100 ml of water. As an organic crude enzymatic solution, there was used a triturated solution of a shaved skin and pancreas of a rat weighing about 200 g.
(§3) (3) The compositions were as follows:
(§4) The composition was incubated at 37° C. for 1 hr, and the reaction was stopped by 5% metaphosphoric acid. 0.5 ml of ferric chloride reagent (0.1% aqueous solution) was added to 5 ml of the supernatant liquid after the centrifugal precipitation to observe the coloring (wine color) thereof.

tyrosinase [2] = experiment: Inhibitory action of pretreated (hydrolyzed) 3-acyloxy-4(H)-pyran-4-one on tyrosinase activity; type: biochemical; conditions: 1.0% solution pretreated by hydrolysis at pH 11.0 or 2.0, 70° C., 30 minutes; L-tyrosine, pH 6.8, 37° C., absorbance at 475 mμ
Description: 3-Acetoxy-4(H)-pyran-4-one was dissolved in ethanol, and the solution was adjusted to pH 6.0 with succinic acid or potassium carbonate to give a 1.0% 3-acetoxy-4(H)-pyran-4-one solution.
As the pretreatment, two samples (each 10 ml) were taken from the solution. To the two samples were added 1% Na2 CO3 and 0.01% HCl to adjust the pH to 11.0 and 2.0, respectively. The adjusted samples were hydrolyzed by heating at 70° C. with stirring for 30 minutes.
To a test tube were added 1 ml of a L-tyrosine solution (0.3 mg/ml), 1 ml of McIlvaine's buffer solution (pH 6.8) and 0.9 ml of the 3-acetoxy-4(H)-pyran-4-one solution pretreated as described above. The mixture was incubated at 37° C. for 10 minutes, and 0.1 ml of a tyrosinase solution (1 mg/ml) was added thereto and stirred thoroughly. The absorbance at 475 mμ was immediately determined by a spectrophotometer with time. On the other hand, the absorbance of water was determined similarly with time as a control.

[3] = tested on: purified bacterial lipase; experiment: Enzymatic hydrolysis of acyl compounds by purified bacterial lipase (ferric chloride coloring); type: in vitro ADME; parameters: key: +: light wine color; ++: deep wine color; +++: dark wine color; --: no coloration; ±: indistinct coloration; conditions: 0.05M substrate emulsion, 37° C., 1 hr
Description: as §1, §2, §3, §4

[4] = tested on: triturated solution of a shaved skin of a rat; experiment: Enzymatic hydrolysis of acyl compounds by rat skin homogenate (ferric chloride coloring); type: in vitro ADME; parameters: key: +: light wine color; ++: deep wine color; +++: dark wine color; --: no coloration; ±: indistinct coloration; conditions: 0.05M substrate emulsion, 37° C., 1 hr
Description: as §1, §2, §3, §4

Reducing action = type: physicochemical
melasma on human face = experiment: Action on the melanization in the human skin (melasma, ointment application); type: in vivo; conditions: 3 times a day, 3 months, 10 volunteers
Source text: Action of 3-hydroxy-4(H)-pyran-4-one and acyl derivatives thereof on the melanization in the human skin.
The test substance was mixed and dissolved in a hydrophilic ointment according to the Japanese Pharmacopoeia and applied to a melasma on one side of each human face 3 times a day. In the control, only the hydrophilic ointment was applied to a melasma on the other side of the human face in the similar way.

[5] = Germicidal action and antibiotic-like action
tyrosinase [6] = experiment: Inhibitory action on tyrosinase activity (absorbance at 475 mμ with time); type: biochemical; conditions: 40 μg in 0.9 ml test solution, L-tyrosine, pH 6.8, 37° C., absorbance at 475 mμ with time (FIG. 1)
Description: To a test tube were added 0.9 ml of a test solution, containing 40 μg of pyranone described above, which solution was obtained by adding the pyranone to 30% aqueous solution of propylene glycol; 1 ml of L-tyrosine solution (0.3 mg/ml); and 1 ml McIlvaine's buffer solution (pH 6.8), and the mixture was incubated at 37° C. for 10 minutes. 0.1 ml of a tyrosinase solution (1 mg/ml) was then added to the incubated mixture and stirred thoroughly. The absorbance at 475 mμ of the mixture was immediately measured by a spectrophotometer with time. As a control, the absorbance at 475 mμ of a 30% aqueous solution of propylene glycol instead of the above test solution was measured with time.
FIG. 1 is a graph to illustrate the effect described above, and agreement of the line showing the absorbance in the case of 3-hydroxy-4(H)-pyran-4-one with the abscissa (time) of the graph clearly indicates the remarkable effect of the 3-hydroxy-4(H)-pyran-4-one.

Structure (SMILES) | Ratio of formation of 3-hydroxy-4(H)--pyran-4-one, Homogenate Rat's pancreas [1] | Inhibitory action on tyrosinase activity (tyrosinase [2]) | Ratio of formation of 3-hydroxy-4(H)--pyran-4-one, Bacterial lipase (purified) [3] | Ratio of formation of 3-hydroxy-4(H)--pyran-4-one, Homogenate Rat's skin [4] | Reducing action (Reducing action) | Results: Effective (number of volunteers) (melasma on human face; 0.5% in hydrophilic ointment) | Results: Ineffective (number of volunteers) (melasma on human face; 0.5% in hydrophilic ointment) | Results: Remarkably effective (number of volunteers) (melasma on human face; 0.5% in hydrophilic ointment) | Results: Effective (number of volunteers) (melasma on human face; 1% in hydrophilic ointment) | Results: Ineffective (number of volunteers) (melasma on human face; 1% in hydrophilic ointment) | Results: Remarkably effective (number of volunteers) (melasma on human face; 1% in hydrophilic ointment) | Mutagenicity (Mutagenicity) | Germicidal action and antibiotic-like action [5] | Inhibitory action on tyrosinase activity (tyrosinase [6]) | Results: Effective (number of volunteers) (melasma on human face; 2% in hydrophilic ointment) | Results: Ineffective (number of volunteers) (melasma on human face; 2% in hydrophilic ointment) | Results: Remarkably effective (number of volunteers) (melasma on human face; 2% in hydrophilic ointment)
CC(=O)Oc1coccc1=O [3-acetoxy-4(H)-pyran-4-one, 3-Acetoxy-4(H)-pyran-4-one] | +++ | Results similar to those of the 3-hydroxy-4(H)-pyran-4-one | + | +++ | – | – | – | – | – | – | – | – | – | – | – | – | –
O=c1ccocc1O [3-hydroxy-4(H)-pyran-4-one] | – | – | – | – | weak reducing action | 3 | 2 | 5 | 2 | 0 | 8 | no mutagenicity | deficient in germicidal action and antibiotic-like action | stronger inhibitory action on the tyrosinase activity than 3-hydroxy-chromone (chromonol) and kojic acid, and a far stronger inhibitory action than vitamin C | – | – | –
CCCCCCCCCCCCCCCC(=O)Oc1coccc1=O [3-palmitoyloxy-4(H)--pyran-4-one, 3-palmitoyloxy-4(H)-pyran-4-one] | ++ | – | ± | ++ | – | 2 | 3 | 5 | 4 | 0 | 6 | – | – | – | 2 | 0 | 8
